From patent US11739053B2, “P62-ZZ chemical inhibitor” (ID4PHARMA, LLC, priority 2011, dated 2023) come the findings set out here.

In data set [1] the test system is Primary human stromal cells. Description: Stromal cell growth, MTT assay. In kind it is cell-based. The procedure: FIG. 4A-C: 4A. Effect of p62-ZZ inhibitor #3 on myeloma cell growth. MM cell growth was assayed by MTT assay. Data are shown as mean±SD (n=5). FIG. 4B. MTT assay of CD138(+) primary myeloma cells. Data are shown as mean±SD (n=5). FIG. 4C. Effects of p62-ZZ inhibitors on human stromal cell growth. Primary human stromal cells (5×10^3/well) were cultured with 10 μM of p62-ZZ inhibitor (#1-6) containing 10% FCS in IMDM for 48 hours. Stromal cells growth was assayed by MTT assay. Data are shown as the mean±SD (n=5). *P<0.01 compared to vehicle treated culture. MM1.S (3×10^5 cells/well) or CD138 (+) (1×10^5 cells/well) primary myeloma cells were incubated in 96-well plates in the presence of RPMI-1640-10% FCS and various concentrations of p62-ZZ inhibitor #3 at 37° C. 5% CO2 for 48 h to determine the IC50 for inhibiting myeloma cell proliferation.

In a further data set the test system is human OCL formation. Description: Human osteoclast (OCL) formation. In kind it is cell-based. Particulars: various concentrations, 2 weeks, 1 ng/ml TNFα. The procedure: FIG. 7A-C: 7A. CFU-Blast colony formation. Human CD34(+) cells were cultured with p62-ZZ inhibitor #3 and 1 ng/ml of rhIL-3 IL-6 and SCF for 7 days. Data are shown as the mean±SD (n=5). FIG. 7B. Human OCL formation. Non-adherent mononuclear cells (2.5×10^7 cells/10-cm dish) derived from human bone marrow samples were cultured in α-MEM containing 10% FCS, 100 pg/ml recombinant human GM-CSF(R & D) for 7 days. Then the cells were collected and plated (cell density is 1.0×10^6 cells/nil) in α-MEM containing 20% horse serum with 1 ng/ml TNFα. Half-media changes were performed twice a week containing various concentrations of the p62-ZZ inhibitor #3. The cultures were incubated for a total of 2 weeks at 37° C. with 5% CO2 and 95% humidity. The osteoclasts were stained with the 23C6 antibody which recognizes CD51/61. Data are shown as the mean±SD (n=5). *P<0.01 compared to vehicle treated cultures. 7C. OCL formation by wild type and p62−/− mouse osteoclast precursors. Data is shown as the mean±SD (n=4). *: P<0.01 compared to no-inhibitor cultures. Whether p62-ZZ inhibitor #3 affects hematopoesis since osteoclast precursors are derived from hematopoietic cells was examined. […] Colonies were scored after 7 days of culture using an inverted microscope.

Data set [2] relates to p62 knockout OCL precursors. Description: OCL formation by p62-/- mouse osteoclast precursors, TRACP stain. Format: cell-based. The following applies: 7 days, 50 ng/ml TNFα. The procedure:
FIG. 7A-C: 7A. CFU-Blast colony formation. Human CD34(+) cells were cultured with p62-ZZ inhibitor #3 and 1 ng/ml of rhIL-3 IL-6 and SCF for 7 days. Data are shown as the mean±SD (n=5). FIG. 7B. Human OCL formation. Non-adherent mononuclear cells (2.5×10^7 cells/10-cm dish) derived from human bone marrow samples were cultured in α-MEM containing 10% FCS, 100 pg/ml recombinant human GM-CSF(R & D) for 7 days. Then the cells were collected and plated (cell density is 1.0×10^6 cells/nil) in α-MEM containing 20% horse serum with 1 ng/ml TNFα. Half-media changes were performed twice a week containing various concentrations of the p62-ZZ inhibitor #3. The cultures were incubated for a total of 2 weeks at 37° C. with 5% CO2 and 95% humidity. The osteoclasts were stained with the 23C6 antibody which recognizes CD51/61. Data are shown as the mean±SD (n=5). *P<0.01 compared to vehicle treated cultures. 7C. OCL formation by wild type and p62−/− mouse osteoclast precursors. Data is shown as the mean±SD (n=4). *: P<0.01 compared to no-inhibitor cultures. The effects of p62-ZZ inhibitor #3 on osteoclast formation by p62^−/− OCL precursors were examined to determine the specificity of the effects of the p62-ZZ inhibitor #3 on osteoclast precursors. CDIIb(+) mononuclear cells from wild type and p62″/_mice were used. […] OCLs were scored as TRAP positive cells containing 3 or more nuclei. […]

The test system of data set [3] is MM1.S cells. Put plainly: Caspase 9, 7 and 3 cleavage in MM1.S cells, Western blot. In kind it is cell-based, human. The following applies: 10 μM, after 16 hours. As to the method: (§1) FIG. 9A-C: 9A. […] MM1.S cells were cultured with 10 μM of p62-ZZ antagonist for the indicated time, and then cell lysates were collected. Caspase 9, 7 and 3 were detected by Western blotting using anti-caspase 9, 7 and 3 specific antibodies (Cell Signaling). FIG. 9B. Detection of Apoptosis using the TUNEL reaction with MM1.S cells treated with p62-ZZ antagonist. MM1.S cells were treated with 10/μM of p62-ZZ antagonist #3 for 24 hours and then the cells were collected and mounted on glass slides using the cytospin procedure. Terminal deoxynucleotidyl transferase nick end labeling (TUNEL) reactions were conducted using an In Situ Cell Death Detection Kit (Roche) according to the manufacturer's instructions. The stained cells were analyzed using a fluorescence microscope equipped with standard green filter. FIG. 9C. The p62-ZZ antagonist induced Reactive Oxygen Species in MM1.S cells. MM1.S cells were treated with 10 μM of p62-ZZ antagonist #3 for 6 hours. Cells were collected and stained for Reactive Oxygen Species (ROS) using a Total ROS detection kit (Enzo) according to the manufacturer's instructions. The expression of apoptosis markers in p62-ZZ antagonist treated on 25 MM cells was determined to determine the mechanism action of this antagonist.
A general note: A western blot detects proteins with antibodies after separation by electrophoresis.

The subject of data set [4] is MM1.S cells. Put plainly: TUNEL apoptosis detection in MM1.S cells. Format: cell-based, human. The following applies: 10 μM, after 24 hours. The procedure:
as §1

A short description of data set [5]: Exploratory metabolic studies.

For the compound `OCCNCc1ccc(OCc2ccccc2)c(OCc2ccccc2)c1` [Compound 3, 2-[[3,4-bis(phenylmethoxy)phenyl]methylamino]ethanol], in data set [1], the “toxicity to regular stromal cells” value is reported as “low toxicity”. Further, in data set [1] (10 μM, 48 hours), the “proliferation of stromal cells by MTT assay” value is “did not change proliferation”. Further, in the data set on human OCL formation, the “human OCL formation” value was “blocked human OCL formation dose dependently”. Further, the “OCL formation by p62 knockout OCL precursors” value in data set [2] was “did not block”. Besides, the “cleavage of caspase 9, 7 and 3” value with MM1.S cells [3] was “induced cleavage”. Also, the “TUNEL staining of cells” value with MM1.S cells [4] is given as “positive TUNEL staining”. Besides, the “distinct peaks in metabolic studies (likely hydroxylation or glucuronidation)” value in data set [5] is reported as 3.
